Results taken from patent publication US7794991B2, “Stemphones and production thereof” (The Kitasato Institute, priority 2005, dated 2010).
Read-outs that look alike come from different tables or passages of the source.

Legend:
[1] = tested on: Bacillus subtilis KB211 (PCI 219); assay: Antimicrobial action, paper disc method; type: cell-based; conditions: 5 μg/disc, disc diameter 6 mm, 37° C., 24 hours
[2] = tested on: Stapylococcus aureus KB210 (ATCC6538p); assay: Antimicrobial action, paper disc method; type: cell-based; conditions: 5 μg/disc, disc diameter 6 mm, 37° C., 24 hours
[3] = tested on: Micrococcus luteus KB212 (ATCC9341); assay: Antimicrobial action, paper disc method; type: cell-based; conditions: 5 μg/disc, disc diameter 6 mm, 37° C., 24 hours
[4] = tested on: Acholeplasma laidlawii KB174; assay: Antimicrobial action, paper disc method; type: cell-based; conditions: 5 μg/disc, disc diameter 6 mm, 37° C., 24 hours
[5] = tested on: methicillin resistant Staphylococcus aureus K24; assay: Enhancing effect for activity of imipenem by paper disk method; conditions: for diameter of inhibition zone in the presence of imipenem / diameter of inhibition zone, stemphone alone: 5 μg disc, 37° C., 20 hours; for diameter of inhibition zone in the presence of imipenem: MHA medium with imipenem 10 μg/ml; for diameter of inhibition zone, stemphone alone: MHA medium without imipenem
MRSA = assay: Enhancing activity against various antimicrobial agents by broth microdilution method (MIC); type: cell-based, Staphylococcus aureus; conditions: for Ratio (−/+stemphone C) of MIC: MIC alone / MIC with stemphone C 16 μg/ml, fold enhancement; for MIC: Staphylococcus aureus, MRSA, read-out: MIC, antibacterial agent alone (−); for MIC, +stemphone C: in combination with stemphone C 16 μg/ml
[6] = without stemphone C, 37° C., 20 hours

| Structure (SMILES) | Ratio (−/+stemphone C) of MIC (MRSA) | MIC (MRSA; [6]) [µg/mL] | MIC, +stemphone C (MRSA; 37° C., 20 hours) [µg/mL] | other results |
| --- | --- | --- | --- | --- |
| C/C=C(\C)C(OC(C)=O)C(C)C1=CC(=O)C2=C(OC3(C)CCC4OC(C(C)(C)O)CC(O)C4(C)C3C2O)C1=O (centres unmarked) [Stemphone B] | – | – | – | zone of inhibition at 5 µg/disc [1]: 10 mm; zone of inhibition at 5 µg/disc [2]: 8 mm; zone of inhibition at 5 µg/disc [3]: 14 mm; zone of inhibition at 5 µg/disc [4]: 10 mm; diameter of inhibition zone in the presence of imipenem [5]: 15 mm; diameter of inhibition zone, stemphone alone [5]: not observed |
| C/C=C(\C)C(OC(C)=O)C(C)C1=CC(=O)C2=C(OC3(C)CCC4OC(C(C)(C)O)CCC4(C)C3C2)C1=O (centres unmarked) [Stemphone C] | – | – | – | effect of stemphone C itself on growth of test organism (MRSA; final concentration 16 μg/ml): did not affect growth; zone of inhibition at 5 µg/disc [1]: 9 mm; zone of inhibition at 5 µg/disc [2]: 8 mm; zone of inhibition at 5 µg/disc [3]: 14 mm; zone of inhibition at 5 µg/disc [4]: 9 mm; diameter of inhibition zone in the presence of imipenem [5]: 20 mm; diameter of inhibition zone, stemphone alone [5]: not observed; enhancing activity for imipenem ([5]; paper disk method, in words): strong enhancing activity |
| Cc1nnc(SCC2=C(C(=O)O)N3C(=O)[C@@H](NC(=O)Cn4cnnn4)[C@H]3SC2)s1 [cefazolin] | 16 | 64 | 4 | – |
| Cc1onc(-c2ccccc2Cl)c1C(=O)N[C@@H]1C(=O)N2[C@@H]1SC(C)(C)[C@@H]2C(=O)O [cloxacillin] | 512 | 512 | 1 | – |
| C[C@@H](O)[C@H]1C(=O)N2C(C(=O)O)=C(SCCN=CN)C[C@H]12 [imipenem] | 512 | 16 | 0.03 | – |
| [H]/N=C(/N)N[C@H]1[C@H](O)[C@@H](O)[C@H](O[C@@H]2O[C@@H](C)[C@](O)(C=O)[C@H]2O[C@@H]2O[C@@H](CO)[C@H](O)[C@@H](O)[C@@H]2NC)[C@@H](N/C(N)=N\[H])[C@@H]1O [streptomycin] | 4 | 2 | 0.5 | – |
| CN(C)[C@@H]1C(O)=C(C(N)=O)C(=O)[C@@]2(O)C(O)=C3C(=O)c4c(O)cccc4[C@@](C)(O)[C@H]3C[C@@H]12 [tetracycline] | 1 | 32 | 32 | – |
| CN[C@H](CC(C)C)C(=O)N[C@H]1C(=O)N[C@@H](CC(N)=O)C(=O)N[C@H]2C(=O)N[C@H]3C(=O)N[C@H](C(=O)N[C@H](C(=O)O)c4cc(O)cc(O)c4-c4cc3ccc4O)[C@H](O)c3ccc(c(Cl)c3)Oc3cc2cc(c3O[C@@H]2O[C@H](CO)[C@@H](O)[C@H](O)[C@H]2O[C@H]2C[C@](C)(N)[C@H](O)[C@H](C)O2)Oc2ccc(cc2Cl)[C@H]1O [vancomycin] | 1 | – | 0.5 | MIC (MRSA; 20 h): 0.5 µg/mL |
